# Values of other authors in patent US20170173276A1, “SYSTEM AND METHOD FOR DELIVERING AN ANTI-ADHESIVE SUBSTANCE TO A BODY CAVITY” (Northgate Technologies Inc., priority 2003, published 2017).
# Columns and labels:
# [1] = administration in liquid form; shown in some studies
# [2] = general/typical value
Compound,post-operative shoulder pain [1],half life [2] [h]
CCCCN1CCCCC1C(=O)Nc1c(C)cccc1C (stereo not drawn) [Bupivacaine],reducing post-operative shoulder pain,–
low molecular weight heparin,–,4 to 5
unfractionated heparin,–,1 to 2
